Measured values published in patent publication US7521447B2, “P38 inhibitors and methods of use thereof” (Array Biopharma Inc., priority 2003, dated 2009).

Each molecule was assayed against activated p38α enzyme (Homo sapiens, UniProt Q16539) (assay: p38 Biochemical Assay). Details: 5 nM activated p38α, 1 uM ATF-2 substrate, 10 μM ATP.
Design: key: An “active” compound is defined as a compound having an IC50 below 500 nM
Protocol: P38 activity was assayed at room temperature in a 100 μl reaction containing 5 nM activated p38α enzyme and 1 uM ATF-2 (Activating Transcription Factor 2 fusion protein) as the substrate in 25 mM HEPES (pH 7.4), 100 μM Vanadate, 1 mM DTT, 10 mM MgCl2 and 10 μM [[…]-^33P]-ATP (˜0.1 μCi P^33/reaction). The reaction was terminated after 30-40 minutes by adding 25% TCA, let stand for 5 minutes and then transferred directly to a GF-B membrane filter plate. The filter was washed twice for 30 seconds with 0.5% phosphoric acid using a Tomtec Mach III Automated Harvestor. After washing, the vacuum was continued for 30 seconds to dry the filter. Approximately 30 μl of scintillant was added per well to the filter plate and then read in a Liquid Scintillation Counter (Packard TopCount HTS).

Sequence of activated p38α enzyme (Q16539 whole entry): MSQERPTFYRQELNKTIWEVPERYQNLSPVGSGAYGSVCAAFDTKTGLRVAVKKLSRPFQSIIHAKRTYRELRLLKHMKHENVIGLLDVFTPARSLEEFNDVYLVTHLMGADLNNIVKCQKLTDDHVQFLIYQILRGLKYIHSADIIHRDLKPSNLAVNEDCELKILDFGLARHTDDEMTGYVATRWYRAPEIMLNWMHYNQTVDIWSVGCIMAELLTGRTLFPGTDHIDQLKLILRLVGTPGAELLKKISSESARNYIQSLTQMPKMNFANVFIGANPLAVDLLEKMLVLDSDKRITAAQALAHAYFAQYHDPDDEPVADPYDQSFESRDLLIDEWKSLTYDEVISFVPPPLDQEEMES

Structure (SMILES)	p38 Inhibition IC50 (nM)
COC(=O)C(CCN)NC(=O)c1cc2c(cnn2CC(C)C)cc1Oc1ccc(F)cc1 (centres unmarked) [Compound 1j-2, 4-amino-2-{[5-(4-fluorophenoxy)-1-isobutyl-1H-indazole-6-carbonyl]-amino}butyric acid methyl ester]	active
COC(=O)C(CCN)NC(=O)c1cc2c(cnn2CC(F)(F)F)cc1Oc1ccc(F)cc1 (centres unmarked) [Compound 1j-4, 4-amino-2-{[5-(4-fluorophenoxy)-1-(2,2,2-trifluoroethyl)-1H-indazole-6-carbonyl]-amino}butyric acid methyl ester]	active
CC(C)Cn1ncc2cc(Nc3ccc(F)cc3F)ccc21 [Compound 2h-1, (2,4-difluorophenyl)-(1-isobutyl-1H-indazol-5-yl)-amine]	active
CC(C)Cn1ncc2cc(Nc3ccc(F)cc3)ccc21 [Compound 2h-2, (4-fluorophenyl)-(1-isobutyl-1H-indazol-5-yl)-amine]	active
Cc1ccccc1Nc1ccc2c(cnn2CC(C)C)c1 [Compound 2h-10, (1-isobutyl-1H-indazol-5-yl)-O-tolyl-amine]	active
CC(C)Cn1ncc2cc(C(O)c3ccc(Cl)cc3F)ccc21 (centres unmarked) [Compound 4f-7, (4-chloro-2-fluorophenyl)-(1-isobutyl-1H-indazol-5-yl)-methanol]	active
CC(C)Cn1ncc2cc(C(O)c3ccc(F)cc3Cl)ccc21 (centres unmarked) [Compound 4f-8, (2-chloro4-fluorophenyl)-(1-isobutyl-1H-indazol-5-yl)-methanol]	active
Cc1ccccc1C(O)c1ccc2c(cnn2CC(C)C)c1 (centres unmarked) [Compound 4f-10, (1-isobutyl-1H-indazol-5-yl)-O-tolyl methanol]	active
CC(C)Cn1ncc2cc(C(=O)c3ccc(F)cc3Cl)ccc21 [Compound 5f-8, (2-chloro-4-fluorophenyl)-(1-isobutyl-1H-indazol-5-yl)-methanone]	active
O=C(c1ccc2c(cnn2CC(F)(F)F)c1)c1ccc(F)cc1F [Compound 5f-11, (2,4-difluorophenyl)-[1-(2,2,2-trifluoro-ethyl)-1H-indazol-5-yl]-methanone]	active
C=CCn1ncc2cc(C(=O)c3ccc(F)cc3F)ccc21 [Compound 5f-12, (1-allyl-1H-indazol-5-yl)-(2,4-difluorophenyl)-methanone]	active
Cc1ccc(-n2nc(C(C)(C)C)cc2NC(=O)NCc2cccnc2Oc2ccc3c(cnn3C)c2)cc1 [Compound 6n, 1-(5-tert-butyl-2-p-tolyl-2H-pyrazol-3-yl)-3-[2-(1-methyl-1H-indazol-5-yloxy)-pyridin-3-ylmethyl]-urea]	active
CCON=C(c1ccc(F)cc1)c1ccc2c(cnn2CC(C)C)c1 [Compound 7f-4, (4-fluorophenyl)-(1-isobutyl-1H-indazol-5-yl)-methanone O-ethyl-oxime]	active
CC(C)Cn1ncc2cc(C(=NOCc3ccccc3)c3ccc(F)cc3F)ccc21 [Compound 7f-7, (2,4-difluorophenyl)-(1-isobutyl-1H-indazol-5-yl)-methanone O-benzyl-oxime]	active
CON=C(c1ccc(F)cc1)c1ccc2c(cnn2CC(C)C)c1 [Compound 7f-9, (4-fluorophenyl)-(1-isobutyl-1H-indazol-5-yl)-methanone O-methyl-oxime]	active
ON=C(c1ccc2c(cnn2CC(F)(F)F)c1)c1ccc(F)cc1F [Compound 7f-12, (2,4-difluorophenyl)-[1-(2,2,2-trifluoroethyl)-1H-indazol-5-yl]-methanone oxime]	active
CON=C(c1ccc2c(cnn2CC(F)(F)F)c1)c1ccc(F)cc1F [Compound 7f-13, (2,4-difluorophenyl)-[1-(2,2,2-trifluoro-ethyl)-1H-indazol-5-yl]-methanone O-methyl oxime]	active
CS(=O)(=O)n1ncc2cc(C(=NO)c3ccc(F)cc3F)ccc21 [Compound 7f-14, (2,4-difluorophenyl)-(1-methanesulfonyl-1H-indazol-5-yl)methanone oxime]	active
CON=C(c1ccc2c(cnn2S(C)(=O)=O)c1)c1ccc(F)cc1F [Compound 7f-15, (2,4-difluorophenyl)-(1-methanesulfonyl-1H-indazol-5-yl)-methanone O-methyl oxime]	active
C=CCn1ncc2cc(C(=NO)c3ccc(F)cc3F)ccc21 [Compound 7f-17, (1-allyl-1H-indazol-5-yl)-(2,4-difluorophenyl)-methanone oxime]	active
Cc1ccc(-n2nc(C(C)(C)C)cc2NC(=O)NCc2cc(F)ccc2Oc2ccc3c(cnn3C)c2)cc1 [Compound 7t-1, 1-(5-tert-butyl-2-p-tolyl-2H-pyrazol-3-yl)-3-[5-fluoro-2-(1-methyl-1H-indazol-5-yloxy)-benzyl]urea]	active
Cc1ccc(-n2nc(C(C)(C)C)cc2NC(=O)NCc2cc(F)ccc2Nc2ccc3c(cnn3CC3CCC3)c2)cc1 [Compound 9q-2, 1-(5-tert-butyl-2-p-tolyl-2H-pyrazol-3-yl)-3-[2-(1-cyclobutylmethyl-1H-indazol-5-ylamino)-5-fluorobenzyl]-urea]	active
CC(C)Cn1ncc2cc(Oc3ccc(F)cc3)c(C(N)=O)cc21 [Compound 11g-1, 5-(4-fluorophenoxy)-1-isobutyl-1H-indazole-6-carboxylic acid amide]	active
CN(C)CCNC(=O)c1cc2c(cnn2CC(F)(F)F)cc1Oc1ccc(F)cc1 [Compound 11g-14, 5-(4-fluorophenoxy)-1-(2,2,2-trifluoroethyl)-1H-indazole-6-carboxylic acid (2-dimethylaminoethyl) amide]	active
CC(C)Cn1ncc2cc(Oc3ccccc3CC(=O)Nc3ccc(N4CCOCC4)cc3)ccc21 [Compound 16p, 2-[2-(1-isobutyl-1H-indazol-5-yloxy)-phenyl]-N-(4-morpholin-4-yl-phenyl)-acetamide]	active
Cc1ccc(-n2nc(C(C)(C)C)cc2NC(=O)N(C)Cc2cc(F)ccc2Oc2ccc3c(cnn3C)c2)cc1 [Compound 28t, 3-(5-tert-butyl-2-p-tolyl-2H-pyrazol-3-yl)-1-[5-fluoro-2-(1-methyl-1H-indazol-5-yloxy)-benzyl]-1-methylurea]	active

What follows are molecules tested on LPS-induced TNF-α secretion from human peripheral blood mononuclear cells (PBMC) (assay: PBMC Assay: inhibition of LPS-induced TNF-α secretion). Details: LPS-stimulated human PBMC, TNF-α ELISA.
Type: cell-based
Design: key: An “active” compound is defined as a compound having an IC50 below 500 nM
Protocol: The ability of compounds of this invention to inhibit TNF-α production was assessed by using human peripheral blood mononuclear cells (“PBMC”) which synthesize and secrete TNF-α when stimulated with lipopolysaccharide.
Compound test solutions were made by making 5 fold serial dilutions in DMSO, which dilutions were then diluted to 5× stocks by diluting with MEM, 2% heat inactivated fetal bovine serum (“FBS”), 20 mM HEPES, 2 mM L-glutamine, and 1% penicillin/streptomycin.
PBMC's were isolated from human blood as follows. Whole blood samples were collected from human volunteers into Vacutainer™ CPT from Becton Dickinson. Tubes were mixed and centrifuged at room temperature (18-25° C.) in a horizontal rotor for a minimum of 15 minutes at 1500-1800 RCF (relative centrifugal force). For each donor, the buffy coat layers were pooled into a single tube and washed twice with phosphate buffered saline (“PBS”). The cell pellet was resuspended in MEM, 2% heat inactivated fetal bovine serum (“FBS”), 20 mM HEPES, 2 mM L-glutamine, and 1% penicillin/streptomycin. Total cell number was determined using a hemocytometer and the cell suspension was adjusted to 2×10^6 cells/mL.
0.1 mL of cell suspension was added to each well of a 96-well cell culture plate. 30 μL of a compound test solution was added, and the cells were incubated in a 37° C./5% CO2 incubator for 1 hour. 20 μL of 7.5 ng/mL lipopolysaccharide (LPS E. Coli K-235) was then added to each well, and the cells were returned to the 37° C./5% CO2 incubator for 16-20 hours. The cells were centrifuged for 15 minutes at 1100 RCF. Approximately 0.12 mL of the supernatant was transferred into a clean 96 well polypropylene plate. The samples were either assayed immediately or were stored at −80° C. until ready for assay. TNF-α levels were determined in each sample using a human TNF-α ELISA assay such as that described below.
TNF-α levels were determined using the following assay. TNF-alpha antibody coated plates were prepared by adding 150 μL of 2 μg/mL anti-TNF-α purified mouse monoclonal IgG in Carbonate-Bicarbonate buffer (BupH™ Carbonate-Bicarbonate Buffer Pack) to wells of a 96-well Immulon 4 plate (Immulon 4 ELISA Flat Bottom Plate; Dynex, catalog number 011-010-3855) and incubated overnight at 2-8° C. Coating solution was removed and 200 μL of “blocking buffer” (20 mM HEPES pH 7.4, 150 mM NaCl, 2% BSA) was added and plates were stored 2-8° C. until ready to use. A ten-point recombinant human TNF-α standard curve was prepared by a 1:2 serial dilution in “sample diluent” (20 mM HEPES, pH 7.4, 150 mM NaCl, 2 mM MgCl2, 1% BSA) with a top concentration of 6000 pg/mL.
Blocking solution was removed from TNF-α ELISA plates by washing five times with 300 μL of “wash buffer” (20 mM HEPES, pH 7.4, 150 mM NaCl, 2 mM MgCl2, 0.02% Tween-20). 50 μL of “sample diluent” was added to all wells, and then either 50 μL of a TNF-α standard curve solution or test compound supernatant was added to all wells. The plate was incubated at room temperature for one hour with shaking (300 rpm). The plate was washed wash five times with 300 μL “wash buffer”. 100 μL of 0.2 μg/mL biotinylated goat anti-human TNF-α in “antibody diluent” (20 mM HEPES, pH 7.4, 150 mM NaCl, 2 mM MgCl2, 1% BSA, 0.02% Tween-20) was added per well, and the plate was incubated at room temperature for one hour with shaking (300 rpm). The plate was washed wash five times with 300 μL “wash buffer” per well. 100 μL of 0.02 μg/mL streptavidin alkaline phosphatase in “antibody diluent” was added per well, and the plate was incubated at room temperature for one hour with shaking (300 rpm). The plate was washed wash five times with 300 μL wash buffer per well. 200 μL of 1 mg/mL pNPP (p-nitrophenyl phosphate) in diethanolamine buffer with 0.5 mM MgCl2 was added per well, and the plate was incubated for 30 to 45 minutes at room temperature with shaking (300 rpm). […]

Structure (SMILES)	PBMC IC50 (nM)
CC(C)Cn1ncc2cc(Nc3ccc(F)cc3F)ccc21 [Compound 2h-1, (2,4-difluorophenyl)-(1-isobutyl-1H-indazol-5-yl)-amine]	active
CC(C)Cn1ncc2cc(Nc3ccc(F)cc3)ccc21 [Compound 2h-2, (4-fluorophenyl)-(1-isobutyl-1H-indazol-5-yl)-amine]	active
Cc1ccccc1Nc1ccc2c(cnn2CC(C)C)c1 [Compound 2h-10, (1-isobutyl-1H-indazol-5-yl)-O-tolyl-amine]	active
